Assay results taken from patent US12397059B2, “Compounds and methods for the treatment and prevention of fibrotic disease states and cancer” (Purdue Research Foundation, priority 2019, dated 2025).
Entries after “also recorded” stand apart in the source; their conditions may differ.

Legend:
[1] = system: THP-1 cells polarized to M2-like macrophages; experiment: Reprogramming of M2-like THP-1 macrophages, marker gene analysis by qPCR; assay type: cell-based, human
Protocol: THP-1 cells were seeded into 96-well plates at a density of 60,000 cells/well. Cells were differentiated into unpolarized macrophages by 48 hours incubation with 200 nM PMA followed by 24 hours incubation in fresh RPMI medium. […] Cultures were maintained at 37° C. in a humidified 5% CO2 incubator.
Total RNA was isolated from 1×10^5 —2×10^5 macrophages using a Quick-RNA™ MicroPrep kit (Zymo Research, Irvine, CA) according to the manufacturer-recommended protocol. […] IL-6, CXCL10, IFNα, IFN-γ and CD86 were used as markers for an M1 phenotype, while CCL18, CD206, CD163 and Arg1 were employed as markers for the M2 phenotype. IL-1β, PDGFβ, MMP9 and TIMP 3 were measured as indicators of a profibrotic phenotype. IRAK-4 was used as an indicator of TLR7 stimulation. To control for specificity of the amplification products, a melting curve analysis was performed. […] Each sample was analyzed independently in triplicate for each marker.
Primarily, human monocytic (THP-1) cells were induced to the M2-like phenotype using the methods and materials previously described. In particular, THP-1 cells were seeded into 96-well plates at a density of 60,000 cells/well. Cells were differentiated into unpolarized macrophages by 48 h incubation with 200 nM PMA followed by 24 hours incubation in fresh RPMI medium. The resulting macrophages were polarized to an M2-like phenotype by incubation with 20 ng/ml IL-4, 20 ng/ml IL-13, and 5 ng/mL IL-6 for 48 h. Cultures were maintained at 37° C. in a humidified 5% CO2 incubator.
In addition to the nonconjugated TLR7 agonist, conjugated compounds of the present disclosure were likewise evaluated. […] The cells were subsequently harvested for gene analysis by qPCR and the relative expression of CCL18 (FIG. 14A), CD206 (FIG. 14B), and IL-1β (FIG. 14C) analyzed.

[2] = Stability during incubation in culture media; assay type: physicochemical; settings: 37° C. in the culture media, 48 hours
Protocol: Indeed, Compound 1B retained the original structure after 48 hours incubation.

[3] = system: BM-induced experimental pulmonary fibrosis in mice; experiment: BM-induced pulmonary fibrosis: markers in bronchoalveolar lavage cells/fluid (qPCR, ELISA); assay type: in vivo
Protocol: Fresh water and folate-deficient diet were freely available.
Bronchoalveolar lavage fluid (BALF) was then analyzed to determine how the targeted TLR7 agonist works. BALF samples were centrifuged at 1500 rpm for 5 min at 4° C. and the supernatant was aliquoted and stored at −80° C. for cytokine/chemokine analyses. Cell pellets were resuspended and cultured in pre-warmed RPMI 1640 medium for 2 hours and then washed 3× with pre-warmed PBS prior to harvesting for qPCR assay. The right lung was then tied with a nylon string and used for subsequent analysis of hydroxyproline content. The left lung was inflated with 1 ml PBS using the inserted syringe and transferred to 10% formalin solution for subsequent histological analyses.
CCL18 and IL-1β were quantified in induced THP-1 cell supernatants using a human DuoSet ELISA Development System (R&D Systems Europe, Abingdon, UK; #DY394-05) and an IL-1 beta Human ELISA Kit (Thermo Fisher Scientific, Waltham, MA; #BMS224-2) as described by manufactures. BALF samples were analyzed for mouse IFN-γ using ELISA MAX™ Deluxe (Biolegend, San Diego, CA; #430804).

[4] = system: M2-induced human monocyte-derived macrophages; experiment: Reprogramming of M2-induced human monocyte-derived macrophages with FA-glucosamine competition; assay type: cell-based; settings: 100 nM, 2 hours then 46 hours without drug
Protocol: Changes in both sets of cytokines were inhibited by blockade of unoccupied folate receptors with excess FA-glucosamine (2+46 h, competition).

[5] = 2 hours with drug, then drug-free medium
[6] = incubated 2 hours, harvested at once or after a further 46 hours
[7] = BALF cells day 21, i.v. every other day from day 10

For `CCCCc1nc2c(N)nc3ccccc3c2n1CC(C)(C)OC(=O)OCCSSCC(NC(=O)CCC(NC(=O)c1ccc(NCc2cnc3nc(N)[nH]c(=O)c3n2)cc1)C(=O)O)C(=O)O` (stereo not drawn) [Compound 1B], the TNFα induction [1, 5] was “dramatically improved”, the “potency relative to Compound 1A” value [1, 5] was “superior potency relative to Compound 1A” and the “marker changes (FIGS. 3A-3F) compared with nontargeted TLR7 agonist” value ([1]; M2-induced THP-1, 48 hours incubation) was “same qualitative changes were observed, only the magnitude of the impact of Compound 1B was somewhat reduced”. For the same molecule, the PDGFα ([1]; data not shown) was “no significant difference”, the “M1-like phenotype (CD86 mRNA, TNFα levels)” value [1, 6] was “upregulated” and the “profibrotic/M2-type markers (CCL18, CD206, IL-1β, PDGFβ mRNA)” value [1, 6] was “downregulated profibrotic/M2-type markers of macrophages more than Compound 1A”. For the same molecule, the stability during incubation [2] was “remained stable”, the “CD86 transcripts (antifibrotic marker, qPCR)” value ([3]; BALF cells day 21) was “upregulated; also recorded: elevated” and the IRAK-4 ([3]; BALF cells day 21) was “upregulated; also recorded: upregulation”. For the same molecule, the “Arg1 (profibrotic marker, qPCR)” value [3, 7] was “downregulated; also recorded: suppressed”, the “MMP9 (profibrotic marker, qPCR)” value [3, 7] was “downregulated; also recorded: suppressed” and the “TIMP 3 (profibrotic marker, qPCR)” value [3, 7] was “downregulated; also recorded: suppressed”. For the same molecule, the “IFN-γ concentration (ELISA of lavage fluid)” value ([3]; day 21) was “upregulated; also recorded: elevated”, the “total number of BALF cells” value ([3]; different doses) was “decreased in a dose-dependent manner” and the “downregulation of biomarkers in presence of excess FA-glucosamine (competitor)” value [4] was “blocked”.
